Counter-ions that a name gives are not always drawn.
Test: aqueous, methanol and acidic extraction of capsule fill, assay by HPLC
Format: physicochemical
Experimental: In order to ascertain the resistance to aqueous and acidic extraction, the fill mass of 10 capsules was mixed with different amounts of purified water (5 mL/caps. and 10 mL/caps.) and extracted for 1, 3 or 5 days. Further, the fill mass of 10 capsules was mixed with 20 mL of methanol and was extracted for 3 days.
The fill mass of 10 capsules of Formulation A or Formulation B was mixed with 20 mL of 0.1 N hydrochloric acid and extracted for one day. Comparison solutions of Pseudoephedrine HCl (labeled as API in the table below) were prepared. After an extraction of the formulation/solvent mixture, the mixtures were centrifugated and the assay of pseudoephedrine HCl was analyzed by HPLC. Even after centrifugation the solutions were turbid. The results were normalized to a capsule containing 1164.8 mg of pseudoephedrine HCl.

CN[C@@H](C)[C@@H](O)c1ccccc1 [API, Pseudoephedrine HCl]
Calculated Mass of recoverable Pseudoephedrine HCl (comparison solution, 1 day, 50 mL water): 1026.0 mg
Calculated Mass of recoverable Pseudoephedrine HCl (comparison solution, 3 days, 50 mL water): 1243.7 mg
Calculated Mass of recoverable Pseudoephedrine HCl (comparison solution, 5 days, 50 mL water): 1227.7 mg
Calculated Mass of recoverable Pseudoephedrine HCl (extraction 1 day, 20 mL HCl 0.1 mol/L with neutralisation): 1197.3 mg
Calculated Mass of recoverable Pseudoephedrine HCl (extraction 1 day, 20 mL HCl 0.1 mol/L without neutralisation): 1054.7 mg
Calculated Mass of recoverable Pseudoephedrine HCl (extraction 3 days, 20 mL methanol): 1165.6 mg
